Test results: PubChem BioAssay AID1963985 (Molecular Pharmacology Branch, DTP, NCI, 2024)

Test system: 252836-082-R-J2-PDC tumor spheroids, viability
Experiment: Anticancer human tumor 252836-082-R-J2-PDC patient-derived head and neck squamous cell carcinoma cell line growth inhibition [PI3K]
Settings: spheroids with HUVEC and MSC; for viability, T/C: stronger effect = lower value
Method in brief: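 Combination activity was assessed by viability in multicellular tumor spheroids carrying HUVEC and MSC components. Agents were tested with PI3K inhibitors from a Cmax-based top dose (or 10 microM) downward in half-log increments.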

[1] = curve of first compound, second compound 0.0316 µM
[2] = curve of first compound, second compound 0.1 µM
[3] = curve of first compound, second compound 0.316 µM
[4] = curve of first compound, second compound 1 µM
[5] = second compound 0.0316 µM, first compound 0.0316 µM
[6] = second compound 0.0316 µM, first compound 0.1 µM
[7] = second compound 0.0316 µM, first compound 0.316 µM
[8] = second compound 0.0316 µM, first compound 1 µM
[9] = second compound 0.0316 µM, first compound 3.16 µM
[10] = second compound 0.0316 µM, first compound 10 µM
[11] = second compound 0.1 µM, first compound 0.0316 µM
[12] = second compound 0.1 µM, first compound 0.1 µM
[13] = second compound 0.1 µM, first compound 0.316 µM
[14] = second compound 0.1 µM, first compound 1 µM
[15] = second compound 0.1 µM, first compound 3.16 µM
[16] = second compound 0.1 µM, first compound 10 µM
[17] = second compound 0.316 µM, first compound 0.0316 µM
[18] = second compound 0.316 µM, first compound 0.1 µM
[19] = second compound 0.316 µM, first compound 0.316 µM
[20] = second compound 0.316 µM, first compound 1 µM
[21] = second compound 0.316 µM, first compound 3.16 µM
[22] = second compound 0.316 µM, first compound 10 µM
[23] = second compound 1 µM, first compound 0.0316 µM
[24] = second compound 1 µM, first compound 0.1 µM
[25] = second compound 1 µM, first compound 0.316 µM
[26] = second compound 1 µM, first compound 1 µM
[27] = second compound 1 µM, first compound 3.16 µM
[28] = second compound 1 µM, first compound 10 µM
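Also: spheroids exposed to agents for seven days before readout.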
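For viability, T/C in this document: percent of vehicle DMSO control viability so 100% = untreated growth.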

CC1(C)CCC(CN2CCN(c3ccc(C(=O)NS(=O)(=O)c4ccc(NCC5CCOCC5)c([N+](=O)[O-])c4)c(Oc4cnc5[nH]ccc5c4)c3)CC2)=C(c2ccc(Cl)cc2)C1 + CC(Nc1ccc2c(c1)OCCn1cc(N3C(=O)OCC3C(F)F)nc1-2)C(N)=O
IC50 (curve of first compound, second compound 0.00316 µM): 5.66 µM
IC50 (curve of first compound, second compound 0.01 µM): 5.49 µM
IC50 [1]: 5 µM
IC50 [2]: 3.92 µM
IC50 [3]: 3.46 µM
IC50 [4]: < 0.0316 µM
viability, T/C (second compound 0.00316 µM, first compound 0.0316 µM): 95.4%
viability, T/C (second compound 0.00316 µM, first compound 0.1 µM): 81.6%
viability, T/C (second compound 0.00316 µM, first compound 0.316 µM): 93.3%
viability, T/C (second compound 0.00316 µM, first compound 1 µM): 101%
viability, T/C (second compound 0.00316 µM, first compound 3.16 µM): 99%
viability, T/C (second compound 0.00316 µM, first compound 10 µM): 6.79%
viability, T/C (second compound 0.01 µM, first compound 0.0316 µM): 98.6%
viability, T/C (second compound 0.01 µM, first compound 0.1 µM): 87%
viability, T/C (second compound 0.01 µM, first compound 0.316 µM): 90.1%
viability, T/C (second compound 0.01 µM, first compound 1 µM): 90.9%
viability, T/C (second compound 0.01 µM, first compound 3.16 µM): 84.7%
viability, T/C (second compound 0.01 µM, first compound 10 µM): 12.2%
viability, T/C [5]: 77.6%
viability, T/C [6]: 83.8%
viability, T/C [7]: 76.5%
viability, T/C [8]: 68.9%
viability, T/C [9]: 90.1%
viability, T/C [10]: 5.56%
viability, T/C [11]: 78.7%
viability, T/C [12]: 64.9%
viability, T/C [13]: 66.1%
viability, T/C [14]: 73%
viability, T/C [15]: 59.8%
viability, T/C [16]: 4.08%
viability, T/C [17]: 70.8%
viability, T/C [18]: 55.3%
viability, T/C [19]: 54.3%
viability, T/C [20]: 56.4%
viability, T/C [21]: 54.3%
viability, T/C [22]: 6.25%
viability, T/C [23]: 47.5%
viability, T/C [24]: 49.6%
viability, T/C [25]: 49.7%
viability, T/C [26]: 47.9%
viability, T/C [27]: 39.7%
viability, T/C [28]: 15.7%

CC1(C)CCC(Nc2ncc(C(F)(F)F)c(-c3c[nH]c4c(P(C)(C)=O)c(C#N)ccc34)n2)CN1 (stereo not given) + Cc1nc(NC(=O)N2CCCC2C(N)=O)sc1-c1ccnc(C(C)(C)C(F)(F)F)c1
IC50 [1]: < 0.0316 µM
IC50 [2]: < 0.0316 µM
IC50 [3]: < 0.0316 µM
IC50 [4]: < 0.0316 µM
IC50 (curve of first compound, second compound 3.16 µM): < 0.0316 µM
IC50 (curve of first compound, second compound 10 µM): < 0.0316 µM
viability, T/C [5]: 39.2%
viability, T/C [6]: 27.6%
viability, T/C [7]: 33.3%
viability, T/C [8]: 30.5%
viability, T/C [9]: 38.8%
viability, T/C [10]: 6.62%
viability, T/C [11]: 36.2%
viability, T/C [12]: 33.4%
viability, T/C [13]: 32.2%
viability, T/C [14]: 30.9%
viability, T/C [15]: 38.4%
viability, T/C [16]: 7.19%
viability, T/C [17]: 28.8%
viability, T/C [18]: 27.6%
viability, T/C [19]: 28.4%
viability, T/C [20]: 27.2%
viability, T/C [21]: 32.8%
viability, T/C [22]: 6.05%
viability, T/C [23]: 27.4%
viability, T/C [24]: 26.9%
viability, T/C [25]: 28.2%
viability, T/C [26]: 25.9%
viability, T/C [27]: 23.1%
viability, T/C [28]: 3.48%
viability, T/C (second compound 3.16 µM, first compound 0.0316 µM): 23.1%
viability, T/C (second compound 3.16 µM, first compound 0.1 µM): 21.1%
viability, T/C (second compound 3.16 µM, first compound 0.316 µM): 22.7%
viability, T/C (second compound 3.16 µM, first compound 1 µM): 24%
viability, T/C (second compound 3.16 µM, first compound 3.16 µM): 20.9%
viability, T/C (second compound 3.16 µM, first compound 10 µM): 2.65%
viability, T/C (second compound 10 µM, first compound 0.0316 µM): 15.8%
viability, T/C (second compound 10 µM, first compound 0.1 µM): 18.1%
viability, T/C (second compound 10 µM, first compound 0.316 µM): 19.4%
viability, T/C (second compound 10 µM, first compound 1 µM): 17.7%
viability, T/C (second compound 10 µM, first compound 3.16 µM): 12.7%
viability, T/C (second compound 10 µM, first compound 10 µM): 1.03%

CC(Nc1ncnc2nc[nH]c12)c1cc2cccc(Cl)c2c(=O)n1-c1ccccc1 (stereo not given)
viability, T/C (compound 0.0316 µM): 96.2% [middle of 8 runs]
viability, T/C (compound 0.1 µM): 95.5% [middle of 8 runs]
viability, T/C (compound 0.316 µM): 97.4% [middle of 8 runs]
viability, T/C (compound 3.16 µM): 78.1% [middle of 8 runs]
viability, T/C (compound 10 µM): 64.3% [middle of 8 runs]
IC50 (compound alone, run of 06/13/2023): > 10 µM
